Data taken from US10233201B2, “Class of HDAC inhibitors expands the renal progenitor cells population and improves the rate of recovery from acute kidney injury” (University of Pittsburgh—Of the Commonwealth System of …, priority 2012, dated 2019).

How the values were obtained:
[1] = system: myod1 (somites), fli1a (vasculature), ntla (notochord); assay: In situ hybridization for mesodermal markers myod1, fli1a, ntla in 10-somite embryos; assay type: in vivo, zebrafish
Description: (§1) PTBA was synthesized as described below. Hydroxyurea and aphidicolin were obtained from Sigma-Aldrich.
(§2) In situ hybridization and immunocytochemistry: In situ hybridization was performed as previously described with some modifications. 142 Hybridization temperature was 65° C. Embryos were blocked in 2% blocking reagent (Roche) with 5% sheep serum in MAB (100 mM maleic acid and 150 mM NaCl [pH 7.5]). Whole-mount immunocytochemistry with 1:25 mouse anti-α6F antibody (Developmental Studies Hybridoma Bank) and 1:100 Cy3 secondary antibody (Jackson ImmunoResearch) was performed as described previously. 108 Embryos were embedded in JB-4 for sectioning per the manufacturer's instructions (Polysciences), sectioned at 5 μm, and mounted with Cytoseal 60 (Richard-Allan Scientific).

zebrafish larvae = assay: Phenotypic scoring of edema and survival in zebrafish larvae at 72 hpf; assay type: in vivo
Description: as §1
Wild type: no visible edema or developmental delay.

[2] = system: human HDACs (HeLa cell nuclear extract); assay: Fluorescence histone deacetylation assay with HeLa cell nuclear extract; assay type: biochemical
[3] = system: pax2a, pax8 expression (kidney field); assay: In situ hybridization for renal progenitor markers pax2a, pax8 / kidney field; assay type: in vivo, zebrafish
Description: as §1, §2

histone H4 acetylation = assay: Histone H4 hyperacetylation Western blot in embryos; assay type: in vivo, zebrafish; conditions: 24 hpf embryos treated 6 hours; 3 μM PTBA, 25 μM PBA, 200 nM TSA
Description: It was next determined whether the HDACi function of PTBA was quantifiable in vivo. 24 hpf embryos were treated with 3 μM PTBA, 25 μM PBA, or 200 nM TSA for 6 hours. Protein extracts were prepared and immunoblotted with an anti-hyperacetylated histone H4 antibody. […] Furthermore, increasing the compound concentration caused a corresponding increase in hyperacetylation (FIG. 21).
SDS-PAGE and Western blotting were performed as described previously with some modifications (Noel, E. S. et al. Organ-specific requirements for Hdac1 in liver and pancreas formation. Dev Biol 322, 237-250, (2008)). Proteins were separated on 18% SDS-PAGE gels. Membranes were incubated at 4° C. overnight with 1:1000 anti-hyperacetylated histone H4 antibody (06-946, Millipore) or 1:1000 anti-α-tubulin antibody (Sigma-Aldrich) in PBT containing 5% nonfat milk.

[4] = system: proximal convoluted tubule cells; assay: Gentamycin-induced AKI in zebrafish larvae: renal cell proliferation (EdU); assay type: in vivo; conditions: 4 μM added 2 days post injection of gentamicin; larvae at 5 days post injection
Description: FIG. 42A is a graph showing the results of an AKI model using gentamycin-induced injury. AKI is generated as per a recent publication, Cianciolo Cosenitino, C., et al. ((2010) Intravenous microinjections of zebrafish larvae to study acute kidney injury. JoVE August 4 (42), pii: 2079. doi: 10.3791/2079). Four micromolar m4PTB (UPHD-00025) was added to the zebrafish E3 media in 0.5% DMSO at 2 days post injection of gentamicin and the larvae are scored daily for four days (6 days post injection) as alive or dead, with the final data tallied on day 6 post injection FIG. 42B.
Proliferation of renal cells was examined post AKI for m4PTB in zebrafish larvae (FIG. 43). AKI is generated as above with gentamycin, essentially as described in Example 11. Four μM m4PTB was added 2 days post injection of gentamicin. Zebrafish larvae at 5 days post injection were treated for 1 hour with the thymidine analogue EdU (10 milimolar), which incorporates into dividing (proliferating cells) while the larvae are in the zebrafish E3 media. The larvae where then fixed and processed for histology to count the number of proliferating cells in the proximal convulted tubule (as marked by the antibody 3G8). The number of proliferating cells was divided by the total number of cells in the proximal convoluted tubule to generate the percent of proliferation also known as the proliferation index as shown in FIG. 43.

Compound | embryos with unchanged fli1a expression ([1]; 3 μM) | embryos with decreased myod1 expression ([1]; 3 μM PTBA (slightly decreased), 25 μM PBA, 200 nM TSA) | embryos with increased ntla expression ([1]; 3 μM PTBA, 25 μM PBA) | death by 72 hpf (zebrafish larvae; 3 μM) | edema in 72 hpf larvae (zebrafish larvae; 3 μM, treatment initiated at 15 somites or later) | phenotype in initial chemical screen (zebrafish larvae; 10 μM, larvae at 72 hpf) | death by 72 hpf (zebrafish larvae; 10 μM, n=90) | larvae with edemic phenotype / pericardial edema at 72 hpf (zebrafish larvae; treated from 2 hpf, 3 μM PTBA, 25 μM PBA, 200 nM TSA) | HDAC activity, % of the control value ([2]; 5 mM compound, 10 μg HeLa extract) | reduction of HDAC activity ([2]; millimolar concentrations) | embryos with expanded pax2a expression ([3]; 3 μM, 10-somite embryos) | pax2a expression at 24 hpf ([3]; 3 μM, treatment begun at 16.5 hpf (15 somites)) | pax2a expression at 24 hpf ([3]; 3 μM, treatment initiated between 2 hpf and 14 hpf (10 somites)) | effect on size of the kidney field / renal markers (in situ hybridization) ([3]; screen hits, data not shown) | histone H4 hyperacetylation (histone H4 acetylation) | renal cell proliferation (proliferation index) [4]
O=C(O)CCCSc1ccccc1 [PTBA, 4-(phenylthio)butanoic acid] | 97% | 95% | 88% | without causing significant death | lack of edema | generated pericardial edema | died before 72 hpf | 92% | 30% | 70% | 95% | no kidney field expansion | expanded pax2a expression | appeared to expand the expression of some renal markers | hyperacetylation was observed | –
COC(=O)CCCSc1ccccc1 [UPHD-00025, methyl 4-(phenylsulfanyl) butanoate] | – | – | – | – | – | – | – | – | – | – | – | – | – | – | – | significantly increased
